According to patent US8318769B2, “Substituted sulfonamide compounds” (Gruenethal GmbH, priority 2008, dated 2012):
Where two headings read alike, the source gives them in different places.

Assays:
[1] = target: T1, human bradykinin 1 receptor (B1R) (Homo sapiens, UniProt P46663); experiment: FLIPR Ca2+ assay, B1R antagonism, human; type: cell-based
T1 construct: expressed in transfected cells
T1 sequence (P46663 1-353): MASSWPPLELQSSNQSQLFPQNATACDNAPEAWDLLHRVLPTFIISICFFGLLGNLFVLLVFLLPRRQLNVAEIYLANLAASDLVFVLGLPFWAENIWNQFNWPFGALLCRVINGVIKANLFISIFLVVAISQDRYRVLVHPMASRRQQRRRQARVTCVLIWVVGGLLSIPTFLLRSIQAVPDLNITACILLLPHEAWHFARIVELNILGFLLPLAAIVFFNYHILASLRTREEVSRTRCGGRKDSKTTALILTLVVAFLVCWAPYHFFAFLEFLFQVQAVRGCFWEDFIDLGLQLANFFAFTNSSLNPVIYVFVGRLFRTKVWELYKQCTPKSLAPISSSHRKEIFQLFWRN
Protocol: (§1) The agonistic or antagonistic action of substances can be quantified on the bradykinin 1 receptor (B1R) of the human and rat species with ectopically expressing cell lines (CHO K1 cells) and with the aid of a Ca^2+-sensitive dyestuff (Fluo-4) in a fluorescent imaging plate reader (FLIPR). The figure in % activation is based on the Ca^2+ signal after addition of Lys-Des-Arg^9-bradykinin (0.5 nM) or Des-Arg^9-bradykinin (100 nM). Antagonists lead to a suppression of the Ca^2+ inflow after addition of the agonist. % inhibition compared with the maximum achievable inhibition is stated.
(§2) The agonistic or antagonistic action of substances can be determined on the bradykinin 1 receptor (B1R) of the human and rat species with the following assay. In accordance with this assay, the Ca^2+ inflow through the channel is quantified with the aid of a Ca^2+-sensitive dyestuff (type Fluo-4, Molecular Probes Europe BV, Leiden, Holland) in a fluorescent imaging plate reader (FLIPR, Molecular Devices, Sunnyvale, USA).
(§3) Chinese hamster ovary cells (CHO K1 cells) transfected stably with the human B1R gene (hB1R cells) or the B1R gene of the rat (rB1R cells) are used. For functional studies, these cells are plated out on black 96-well plates with a clear base (BD Biosciences, Heidelberg, Germany or Greiner, Frickenhausen, Germany) in a density of 20,000-35,000 cells/well. The cells are left overnight at 37° C. and 5% CO2 in culture medium (hB1R cells: Nutrient Mixture Ham's F12, Gibco Invitrogen GmbH, Karlsruhe, Germany or DMEM, Sigma-Aldrich, Taufkirchen, Germany; rB1R cells: D-MEM/F12, Gibco Invitrogen GmbH, Karlsruhe, Germany) with 10 vol. % FBS (foetal bovine serum, Gibco Invitrogen GmbH, Karlsruhe, Germany or PAN Biotech GmbH, Aidenbach, Germany).
(§4) On the following day, the cells are loaded for 60 min at 37° C. with 2.13 μM Fluo-4 (Molecular Probes Europe BV, Leiden, Holland) in HBSS buffer (Hank's buffered saline solution, Gibco Invitrogen GmbH, Karlsruhe, Germany) with 2.5 mM probenecid (Sigma-Aldrich, Taufkirchen, Germany) and 10 mM HEPES (Sigma-Aldrich, Taufkirchen, Germany). The plates are then washed 2× with HBSS buffer, and HBSS buffer which additionally contains 0.1% BSA (bovine serum albumin; Sigma-Aldrich, Taufkirchen, Germany), 5.6 mM glucose and 0.05% gelatine (Merck KGaA, Darmstadt, Germany) is added. After a further incubation of 20 minutes at room temperature, the plates are inserted into the FLIPR for the Ca^2+ measurement.
(§5) Alternatively, the plates are washed with buffer A (15 mM HEPES, 80 mM NaCl, 5 mM KCl, 1.2 mM CaCl2, 0.7 mM MgSO4, 2 g/l glucose, 2.5 mM probenecid), buffer A is added and the plates are loaded with 2.5 μM Fluo-4 and 0.025% Pluronic F127 (Sigma-Aldrich, Taufkirchen, Germany). Thereafter, the cells are washed 2× with buffer A and incubated for 30 minutes with buffer A, which additionally contains 0.05% BSA and 0.05% gelatine, at room temperature and thereafter inserted into the FLIPR for the Ca^2+ measurement.
(§6) The Ca^2+-dependent fluorescence is measured here before and after addition of substances (λex=488 nm, λem=540 nm). Quantification is by measurement of the highest fluorescence intensity (FC, fluorescence counts) over time.
(§7) The FLIPR protocol consists of 2 additions of substance. Test substances (10 μM) are first pipetted on to the cells and the Ca^2+ inflow is compared with the control (hB1R: Lys-Des-Arg^9-bradykinin >=50 nM; rB1R: Des-Arg^9-bradykinin 10 μM). This gives the figure in % activation based on the Ca^2+ signal after addition of Lys-Des-Arg^9-bradykinin (>=50 nM) or Des-Arg^9-bradykinin (10 μM).
(§8) After incubation for 10-20 minutes, Lys-Des-Arg^9-bradykinin (hB1R) or Des-Arg^9-bradykinin (rB1R) in the concentration of the EC80 is applied and the inflow of Ca^2+ is likewise determined. Antagonists lead to a suppression of the Ca^2+ inflow. % inhibition compared with the maximum achievable inhibition is calculated. […]

[2] = target: T2, bradykinin 1 receptor (B1R) of the rat (Rattus norvegicus, UniProt P97583); experiment: FLIPR Ca2+ assay, B1R antagonism, rat; type: cell-based
T2 construct: expressed in transfected cells
T2 sequence (P97583 1-337): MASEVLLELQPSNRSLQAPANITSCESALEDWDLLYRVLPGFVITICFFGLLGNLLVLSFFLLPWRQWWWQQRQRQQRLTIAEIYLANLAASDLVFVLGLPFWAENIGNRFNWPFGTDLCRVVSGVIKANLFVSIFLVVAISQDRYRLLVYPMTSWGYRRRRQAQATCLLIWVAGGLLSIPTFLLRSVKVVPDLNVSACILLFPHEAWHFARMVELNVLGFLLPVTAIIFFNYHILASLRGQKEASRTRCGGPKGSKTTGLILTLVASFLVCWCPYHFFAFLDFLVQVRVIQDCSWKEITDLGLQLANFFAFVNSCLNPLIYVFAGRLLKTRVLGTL
Protocol: as §1, §2, §3, §4, §5, §6, §7, §8

[3] = 10 μM test substance, CHO K1 cells with human B1R gene (hB1R cells), Lys-Des-Arg9-bradykinin at EC80, % inhibition compared with the maximum achievable inhibition, read-out: B1R antagonism, human [10 μM] % inhibition
[4] = CHO-K1, 10 μM test substance, CHO K1 cells with rat B1R gene (rB1R cells), Des-Arg9-bradykinin at EC80, % inhibition compared with the maximum achievable inhibition, read-out: B1R antagonism, rat [10 μM] % inhibition

| inhibition at 10 µM [1, 3] | inhibition at 10 µM [2, 4] | SMILES | inhibition at 10 µM ([1]; CHO-K1, read-out: B1R antagonism, human [10 μM] % inhibition) | inhibition at 10 µM ([2]; CHO-K1, read-out: B1R antagonism, rat [10 μM] % inhibition) | B1R antagonism, human [10 μM] % inhibition ([1]; 10 μM test substance, CHO K1 cells with human B1R gene (hB1R cells), Lys-Des-Arg9-bradykinin at EC80, % inhibition compared with the maximum achievable inhibition) |
| --- | --- | --- | --- | --- | --- |
| 100% | 102% | Cc1cccc(Cl)c1S(=O)(=O)N(CCOCC(=O)N1CCC(OCCN2CCCC2)(c2cccc(F)c2)CC1)C1CC1 [Example 62, 2-chloro-N-cyclopropyl-N-[2-[2-[4-(3-fluorophenyl)-4-(2-pyrrolidin-1-yl-ethoxy)-piperidin-1-yl]-2-oxo-ethoxy]-ethyl]-6-methyl-benzenesulfonic acid amide] |  |  |  |
| 100% | 102% | Cc1cccc(Cl)c1S(=O)(=O)N(CCOCC(=O)N1CCC(OCC[N+]2([O-])CCCC2)(c2cccc(F)c2)CC1)C1CC1 [Example 53, 2-chloro-N-cyclopropyl-N-[2-[2-[4-(3-fluorophenyl)-4-[2-(1-oxido-pyrrolidin-1-ium-1-yl)-ethoxy]-piperidin-1-yl]-2-oxo-ethoxy]-ethyl]-6-methyl-benzenesulfonic acid amide] |  |  |  |
| 50% | 98% | CN1CCN(CCCOC2(c3cccnc3)CCN(C(=O)CC(NS(=O)(=O)c3ccc4ccccc4c3)c3ccccc3)CC2)CC1 (stereo not drawn) [Example 39, N-(3-(4-(3-(4-methylpiperazin-1-yl)propoxy)-4-(pyridin-3-yl)piperidin-1-yl)-3-oxo-1-phenylpropyl)naphthalene-2-sulfonamide] |  |  |  |
| 91% | 99% | Cc1cccc(Cl)c1S(=O)(=O)N1c2ccccc2OCC1COCC(=O)N1CCC(OCCN2CCCC2)(c2cccc(F)c2)CC1 (stereo not drawn) [Example 109, 2-[[4-[(2-chloro-6-methyl-phenyl)sulfonyl]-3,4-dihydro-2H-[1,4]benzoxazin-3-yl]-methoxy]-1-[4-(3-fluorophenyl)-4-(2-pyrrolidin-1-yl-ethoxy)-piperidin-1-yl]-ethanone] |  |  |  |
| 52% | 48% | O=C(CC1CCCCN1S(=O)(=O)c1cccc(C(F)(F)F)c1)N1CCC(OCCCN2CCCC2)(c2cccnc2)CC1 (stereo not drawn) [Example 42, 1-(4-(pyridin-3-yl)-4-(3-(pyrrolidin-1-yl)propoxy)piperidin-1-yl)-2-(1-(3-(trifluoromethyl)phenylsulfonyl)piperidin-2-yl)ethanone] |  |  |  |
| 100% | 103% | COc1cc(C)c(S(=O)(=O)N2CCCCC2COCC(=O)N2CCC(OCCN3CCCC3)(c3ccncc3)CC2)c(C)c1 (stereo not drawn) [Example 84, 2-[[1-[(4-methoxy-2,6-dimethyl-phenyl)sulfonyl]-piperidin-2-yl]-methoxy]-1-[4-pyridin-4-yl-4-(2-pyrrolidin-1-yl-ethoxy)-piperidin-1-yl]-ethanone] |  |  |  |
| 103% | 87% | O=C(COCC1CCc2ccccc2N1S(=O)(=O)c1ccc(Cl)c(Cl)c1)N1CCC(OCCN2CCCCC2)(c2cccnc2)CC1 (stereo not drawn) [Example 16, 2-((1-(3,4-dichlorophenylsulfonyl)-1,2,3,4-tetrahydroquinolin-2-yl)methoxy)-1-(4-(2-(piperidin-1-yl)ethoxy)-4-(pyridin-3-yl)piperidin-1-yl)ethanone] |  |  |  |
| 103% | 102% | COc1cc(C)c(S(=O)(=O)N2CCCCC2COCC(=O)N2CCC(OCCN3CCCCC3)(c3cccnc3)CC2)c(C)c1 (stereo not drawn) [Example 14, 2-((1-(4-methoxy-2,6-dimethylphenylsulfonyl)piperidin-2-yl)methoxy)-1-(4-(2-(piperidin-1-yl)ethoxy)-4-(pyridin-3-yl)piperidin-1-yl)ethanone] |  |  |  |
| 98% | 97% | COc1cc(C)c(S(=O)(=O)N2c3ccccc3OCC2COCC(=O)N2CCC(OCCN3CCCC3)(c3cccc(F)c3)CC2)c(C)c1 (stereo not drawn) [Example 107, 1-[4-(3-fluorophenyl)-4-(2-pyrrolidin-1-yl-ethoxy)-piperidin-1-yl]-2-[[4-[(4-methoxy-2,6-dimethyl-phenyl)sulfonyl]-3,4-dihydro-2H-[1,4]benzoxazin-3-yl]-methoxy]-ethanone] |  |  |  |
| 87% | 91% | O=C(CC(NS(=O)(=O)c1ccc2ccccc2c1)c1ccccc1)N1CCC(OCCN2CCCC2)(c2cccnc2)CC1 (stereo not drawn) [Example 26, N-(3-oxo-1-phenyl-3-(4-(pyridin-3-yl)-4-(2-(pyrrolidin-1-yl)ethoxy)piperidin-1-yl)propyl)naphthalene-2-sulfonamide] |  |  |  |
|  |  | O=C(COCCN(C(c1ccccc1)c1ccccc1)S(=O)(=O)c1ccc(Cl)cc1Cl)N1CCC(OCCN2CCCC2)(c2cccnc2)CC1 [Example 4, N-benzhydryl-2,4-dichloro-N-(2-(2-oxo-2-(4-(pyridin-3-yl)-4-(2-(pyrrolidin-1-yl)ethoxy)piperidin-1-yl)ethoxy)ethyl)benzenesulfonamide] | 99% | 98% |  |
| 100% | 98% | Cc1cccc(Cl)c1S(=O)(=O)N1CCCCC1CCCC(=O)N1CCC(OCCN2CCCC2)(c2cccc(F)c2)CC1 (stereo not drawn) [Example 85, 4-[1-[(2-chloro-6-methyl-phenyl)sulfonyl]-piperidin-2-yl]-1-[4-(3-fluorophenyl)-4-(2-pyrrolidin-1-yl-ethoxy)-piperidin-1-yl]-butan-1-one] |  |  |  |
| 99% | 97% | COc1cc(C)c(S(=O)(=O)N(CCOCC(=O)N2CCC(OCCN3CCCC3)(c3cccc(F)c3)CC2)c2ccccc2)c(C)c1 [Example 99, N-[2-[2-[4-(3-fluorophenyl)-4-(2-pyrrolidin-1-yl-ethoxy)-piperidin-1-yl]-2-oxo-ethoxy]-ethyl]-4-methoxy-2,6-dimethyl-N-phenyl-benzenesulfonic acid amide] |  |  |  |
|  |  | COc1cc(C)c(S(=O)(=O)N2CCCCC2CCCC(=O)N2CCC(OCCN3CCCC3)(c3cccnc3)CC2)c(C)c1 (stereo not drawn) [Example 88, 4-[1-[(4-methoxy-2,6-dimethyl-phenyl)sulfonyl]-piperidin-2-yl]-1-[4-pyridin-3-yl-4-(2-pyrrolidin-1-yl-ethoxy)-piperidin-1-yl]-butan-1-one] |  |  | 100% |
